Test results taken from patent US7390816B2, “Methods for treating urinary incontinence in patients suffering from memory disorders” (Bridge Pharma, Inc., priority 2005, dated 2008).
Where two headings read alike, the source gives them in different places.

Experiments:
[1] = test system: carbachol-induced contractions of urinary bladder smooth muscle strips; experiment: Antimuscarinic activity on bladder smooth muscle strips (carbachol-induced contractions); type: cell-based, guinea pigs; settings: Cavia porcellus, read-out: KB for inhibition of carbachol-induced contractions
From the text: Conclusions: Trospium had slightly higher affinity for human muscarinic receptors than the reference compounds. The therapeutic activity of anti-muscarinic drugs in overactive human bladders are usually considered to be related to affinity for M-2/M-3 receptors, while the side effect xerostomia (dry mouth) is due mainly, but not exclusively, to inhibition of M-1 receptors in salivary glands. • 2. Functional Characterization of Antimuscarinic and Antispasmodic Activities on Bladder Smooth Muscle Strips. Methods: Experiments have now been performed using methods described by Kachur et al, J Pharmacol Exp Ther. 1988, 247: 867-872 and Noronha-Blob et al. J Pharmacol Exp Ther 256: 562-567. Strips of tissue (approximately 10 mm long and 1.5 mm wide) were removed from the urinary bladder of male guinea pigs. The tissues were suspended in an oxygenated buffer of the following composition, in mM: NaCl 133; KCl 4.7; CaCl2 2.5; MgSO4 0.6; NaH2PO4.1.3; NaHCO3 16.3; and glucose 7.7. The smooth muscle strips were maintained at or about 37.5° C. in tissue chambers and allowed to equilibrate with the bathing solution for one hour before proceeding with the experiment. […]

[2] = test system: memory; experiment: Side effects concerning memory functions, T-shaped maze in conscious rats; type: in vivo; settings: for Effect on memory: naive rats
Protocol: . Side effects concerning memory functions. Methods:
Conscious rats are used. The animals are placed at the base of a T-shaped maze with a reward placed in one of the arms of the maze. After the animals have learned where the reward is located, said reward is removed and it is investigated how long time it takes in the maze before the rats no longer selected the arm of the maze where the reward had been located. Experiments were also performed in rats that had been pretreated with phenylephrine to increase the permeability of the blood-brain barrier. Control groups of animals were treated with placebo (vehicle only) or with oxybutynin.

[3] = male guinea pig urinary bladder strips

Compound	Kb [1, 3]	Effect on memory ([2]; T-shaped maze)	Kb [1]	Effect on memory after phenylephrine pretreatment ([2]; rats pretreated with phenylephrine to increase blood-brain barrier permeability)	Aggravation of existing memory impairment ([2]; rats with memory disorder induced by oxybutynin, T-shaped maze)
CCN(CC)CC#CCOC(=O)C(O)(c1ccccc1)C1CCCCC1 (centres unmarked) [Oxybutynin]	1.5 to 5.5 nM	memory is impaired	–	–	–
Cc1ccc(O)c([C@H](CCN(C(C)C)C(C)C)c2ccccc2)c1 [Tolterodine]	–	–	1.5 to 5.5 nM	–	–
O=C(OC1CC2CCC(C1)[N+]21CCCC1)C(O)(c1ccccc1)c1ccccc1 (centres unmarked) [Trospium, azoniaspiro (3[…]-benziloyl-oxynortro-pane-8,1′-pyrrolidine) chloride]	–	does not influence the memory	1.5 to 5.5 nM	did not uncover any impairment of memory	no further aggravation of memory impairment
CC(CC(c1ccccc1)c1ccccc1)NC(C)(C)C (centres unmarked) [terodiline]	1.5 to 5.5 nM	–	–	–	–
